Measured values reported in paper PMC5982776, “The novel anti-androgen candidate galeterone targets deubiquitinating enzymes, USP12 and USP46, to control prostate cancer growth and survival” (Oncotarget, 2018).

How the values were obtained:
USP46 = USP46 (Homo sapiens, UniProt P62068); experiment: Biacore SPR dose-dependent binding; IC50 from Ub-AMC enzyme inhibition with USP46/UAF1; assay type: biochemical
USP12 = USP12 (Homo sapiens, UniProt O75317); experiment: Biacore SPR dose-dependent binding; IC50 from Ub-AMC enzyme inhibition with USP12/UAF1; assay type: biochemical
USP12, sequence (O75317 whole entry): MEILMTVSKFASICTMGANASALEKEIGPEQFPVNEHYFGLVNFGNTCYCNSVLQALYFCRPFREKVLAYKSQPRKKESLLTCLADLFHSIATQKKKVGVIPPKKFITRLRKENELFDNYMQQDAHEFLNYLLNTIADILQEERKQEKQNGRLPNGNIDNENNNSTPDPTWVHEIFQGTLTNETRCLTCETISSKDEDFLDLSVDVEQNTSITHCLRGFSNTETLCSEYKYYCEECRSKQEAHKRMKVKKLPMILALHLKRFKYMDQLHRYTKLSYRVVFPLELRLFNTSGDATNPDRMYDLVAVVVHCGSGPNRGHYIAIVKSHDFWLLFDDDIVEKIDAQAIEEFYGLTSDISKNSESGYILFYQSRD
USP12, sequence (Q8TAF3 whole entry partner): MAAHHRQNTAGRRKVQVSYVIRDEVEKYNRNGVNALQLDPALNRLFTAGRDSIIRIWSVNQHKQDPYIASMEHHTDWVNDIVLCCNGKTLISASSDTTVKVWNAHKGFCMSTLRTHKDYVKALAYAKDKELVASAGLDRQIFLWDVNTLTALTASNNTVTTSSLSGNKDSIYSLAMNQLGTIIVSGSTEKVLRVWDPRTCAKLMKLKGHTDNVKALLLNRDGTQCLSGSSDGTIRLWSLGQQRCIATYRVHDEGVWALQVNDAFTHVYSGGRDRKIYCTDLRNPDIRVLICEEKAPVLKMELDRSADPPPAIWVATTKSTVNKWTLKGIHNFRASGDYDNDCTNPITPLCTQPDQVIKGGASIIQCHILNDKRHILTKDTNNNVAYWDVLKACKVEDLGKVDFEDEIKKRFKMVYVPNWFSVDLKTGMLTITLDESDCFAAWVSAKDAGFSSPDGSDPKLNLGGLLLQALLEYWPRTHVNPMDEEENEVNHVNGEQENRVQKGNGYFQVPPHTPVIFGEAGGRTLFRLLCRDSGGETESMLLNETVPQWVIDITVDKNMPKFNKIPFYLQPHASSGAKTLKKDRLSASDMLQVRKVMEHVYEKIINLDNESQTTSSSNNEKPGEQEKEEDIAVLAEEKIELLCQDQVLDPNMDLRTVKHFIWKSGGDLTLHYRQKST

USP46, sequence (P62068 whole entry): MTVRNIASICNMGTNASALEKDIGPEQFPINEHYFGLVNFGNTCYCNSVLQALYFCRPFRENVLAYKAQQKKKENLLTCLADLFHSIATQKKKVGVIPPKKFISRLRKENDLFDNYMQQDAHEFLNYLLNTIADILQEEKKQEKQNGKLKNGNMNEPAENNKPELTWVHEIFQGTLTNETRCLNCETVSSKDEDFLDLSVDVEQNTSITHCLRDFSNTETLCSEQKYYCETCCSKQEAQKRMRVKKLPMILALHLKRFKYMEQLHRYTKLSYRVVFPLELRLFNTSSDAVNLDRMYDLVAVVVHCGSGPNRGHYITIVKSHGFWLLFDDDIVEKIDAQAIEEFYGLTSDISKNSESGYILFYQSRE
USP46, sequence (Q8TAF3 whole entry partner): as the sequence (Q8TAF3 whole entry partner) above

Structure (SMILES): C[C@]12CC[C@H](O)CC1=CC[C@@H]1[C@@H]2CC[C@]2(C)C(n3cnc4ccccc43)=CC[C@@H]12 [galeterone]
- IC50 (USP46): 3.4 to 4.2 µM
- IC50 (USP12): 2.1 to 3.4 µM
